According to patent US9000154B2, “Rho kinase inhibitors” (Boehringer Ingelheim International GmbH, priority 2010, dated 2015):

What was measured:
ROCKII (1-543) [1] = biological target: T1, ROCKII (1-543) (Homo sapiens, UniProt O75116); test: IMAP Assay (fluorescence polarization, FAM S6 peptide); type: biochemical; parameters: 3 nM ROCKII (1-543) diluted in kinase reaction buffer; conditions: IMAP FP, 1 nM ROCKII (1-543), 100 μM ATP; read-out: Assay 2 IC50
Protocol: This assay is performed using FAM S6 substrate peptide (Catalogue #R7184) and IMAP FP Screening Express Kit detection reagents from Molecular Devices (Sunnyvale, Calif.) in IMAP kinase reaction buffer (Tris-HCl, pH 7.2, 10 mM MgCl2, 0.05% NaN3, 0.1% phosphate-free BSA) containing 1 mM DTT. Test compounds dissolved in neat DMSO at 0.3 mg/mL are serially diluted 1 to 3 for concentration response in 100% DMSO. The DMSO serial dilutions are further diluted 33.33-fold in kinase reaction buffer, and 10 μL of this buffer dilution is transferred to Corning black 96-well half area NBS plates for a final top concentration of 3 μg/mL in 1% DMSO. 10 μL aliquot of 3 nM ROCKII (1-543) diluted in kinase reaction buffer is added to each assay well for a final concentration of 1 nM kinase. 10 μL of a mixture of 600 nM FAM S6 peptide and 300 μM ATP diluted in kinase reaction buffer is added to each well for a final concentration of 200 nM peptide and 100 μM ATP. The kinase reaction mixture is incubated for 60 minutes at room temperature. Positive controls are reaction mixtures containing no test compound and negative controls (blanks) are reaction mixtures containing no kinase. The kinase reaction is stopped by addition of 60 μL IMAP progressive binding reagent (Catalog #R7284) diluted 400-fold in 1× Binding buffer A. After 30 min of incubation at room temperature, the plates are read for fluorescence polarization on Analyst Plate Reader using Ex 485 nm, Em 530 nm, and FL 505 dichroic mirror. The mP signals are converted to percent of control (POC) values using the formula: POC=100*(Signal−BCTRL)÷(PCTRL−BCTRL)
Where Signal is the test well signal, BCTRL is the average of background (negative control) well signals on the plate and PCTRL is the average of positive control well signals on the plate. For the concentration-responsive compounds, POC as a function of test compound concentration is fitted to a 4-parameter logistic equation of the form: Y=A+(B−A)/[1+(x/C)D]
Where A, B, C, and D are fitted parameters (parameter B is fixed at zero POC), and x and y are the independent and dependent variables, respectively. The IC50 is determined as the inflection point parameter, C.
Target sequence in this assay (O75116 1-543, species assumed): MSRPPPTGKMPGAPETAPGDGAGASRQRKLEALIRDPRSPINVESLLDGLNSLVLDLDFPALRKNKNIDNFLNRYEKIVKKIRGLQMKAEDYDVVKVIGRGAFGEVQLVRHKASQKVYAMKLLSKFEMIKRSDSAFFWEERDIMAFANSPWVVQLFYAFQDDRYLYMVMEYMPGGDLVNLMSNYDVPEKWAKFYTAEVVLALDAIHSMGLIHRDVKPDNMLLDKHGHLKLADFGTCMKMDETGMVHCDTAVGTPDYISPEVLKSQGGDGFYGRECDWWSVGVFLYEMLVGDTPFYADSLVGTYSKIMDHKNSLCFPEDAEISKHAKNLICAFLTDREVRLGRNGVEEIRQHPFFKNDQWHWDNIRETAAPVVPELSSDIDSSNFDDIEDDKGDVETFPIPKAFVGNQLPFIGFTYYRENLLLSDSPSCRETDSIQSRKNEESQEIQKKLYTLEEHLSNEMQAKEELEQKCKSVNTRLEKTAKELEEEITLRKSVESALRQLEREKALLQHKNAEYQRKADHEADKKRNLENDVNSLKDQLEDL

ROCKII (1-543) [2] = biological target: T1, ROCKII (1-543); test: Luciferin-Luciferase Assay (PKLight ATP detection); type: biochemical; parameters: ROCKII (1-543) (62,408 Da) was diluted in assay buffer; conditions: 7.5 nM ROCKII (1-543), 750 nM ATP
Protocol: 1. Luciferin-Luciferase Assay
The activity of ROCKII (1-543) kinase was measured utilizing Cambrex PKLight ATP Detection Reagent, a homogeneous assay technology using luciferin-luciferase to quantify residual ATP. The assay was performed in 384-well low-volume, white, non-binding surface microtiter plates (Corning). The assay buffer was 25 mM HEPES, pH 7.5, 10 mM MgCl2, 50 mM KCl, 0.2% BSA, 0.01% CHAPS, 100 μM Na3VO4 and 0.5 mM DTT. Test compounds, dissolved in neat DMSO at 500 μg/mL, were serially diluted for dose response for a final starting concentration of 3 μg/mL in 1% DMSO of assay buffer. ROCKII (1-543) (62,408 Da) was diluted in assay buffer to a final concentration of 7.5 nM in a total volume of 15 μL. Positive controls were reaction mixtures containing no test compound; negative controls (blanks) were reaction mixtures containing no kinase. After 15 minutes of pre-incubation of the test compounds with the kinase, a mixture of ATP and peptide substrate (AKRRRLSSLRA) in assay buffer was added to each well for a final concentration of 750 nM ATP and 500 nM peptide, respectively. After 90 minutes of incubation of the kinase reaction at 28° C. temperature, 10 μL of PKLight ATP Detection Reagent (warmed to room temperature previously) was added to each well. The assay plate was incubated at room temperature for additional 15 minutes and then read on an Analyst in luminescence mode. Dose-response experiments for each of the test compounds were conducted in quadruplet. IC50 values of test compounds represent 50% response of the positive control from the dose-response curve.
Target sequence in this assay (O75116 1-543): as the sequence (O75116 1-543, species assumed) above

[3] = test system: neointimal formation in rats; conditions: balloon injury model; cited from earlier work
[4] = test system: spontaneously hypertensive rat, renal hypertensive rat and deoxycortisone acetate salt hypertensive rat models; conditions: cited from earlier work
Dahl salt-sensitive rats = conditions: congestive heart failure; cited from earlier work
rat stroke model = conditions: cited from earlier work
[5] = test system: IL-1 beta-induced coronary stenosis; conditions: porcine, long term treatment; cited from earlier work

Row | IC50 (ROCKII (1-543) [1]) [nM] | IC50 (ROCKII (1-543) [2]) [nM] | Structure (SMILES) | further results
1 | 7.3 | 2.1 | CN(CCC(F)(F)F)[C@H]1CCc2nc(NC(=O)c3cccc(Cn4cc(-c5ccc(C#N)cc5)cn4)c3)sc2C1 [Compound 30, 3-[4-(4-Cyano-phenyl)-pyrazol-1-ylmethyl]-N-{(S)-6-[methyl-(3,3,3-trifluoro-propyl)-amino]-4,5,6,7-tetrahydro-benzothiazol-2-yl}-benzamide] | 
2 | 2 | 2.9 | CN(CCC#N)[C@H]1CCc2nc(NC(=O)c3cccc(Cn4cc(-c5ccc(C#N)cc5)nn4)c3)sc2C1 [Compound 32, N-{(S)-6-[(2-Cyano-ethyl)-methyl-amino]-4,5,6,7-tetrahydro-benzothiazol-2-yl}-3-[4-(4-cyano-phenyl)-[1,2,3]triazol-1-ylmethyl]-benzamide] | 
3 | 12 | 3.2 | N#Cc1ccc(-c2nnc(Cc3cccc(C(=O)Nc4nc5c(s4)C[C@@H](N4CCOCC4)CC5)c3)o2)cc1 [Compound 40, 3-[5-(4-Cyano-phenyl)-1,3,4-oxadiazol-2-ylmethyl]-N—((S)-6-morpholin-4-yl-4,5,6,7-tetrahydro-benzothiazol-2-yl)-benzamide] | 
4 | 5.8 | 7.1 | N#Cc1ccc(-c2cn(Cc3cccc(C(=O)Nc4nc5c(s4)CC(N4CCC(F)(F)CC4)CC5)c3)nn2)cc1 (stereo not drawn) [Compound 41, 3-[4-(4-Cyano-phenyl)-1,2,3-triazol-1-ylmethyl]-N-[6-(4,4-difluoro-piperidin-1-yl)-4,5,6,7-tetrahydro-benzothiazol-2-yl]-benzamide] | 
5 | 1.1 | 3.4 | N#Cc1ccc(-c2cn(Cc3cccc(C(=O)Nc4nc5c(s4)CC(N4CCC(F)CC4)CC5)c3)nn2)cc1 (stereo not drawn) [Compound 42, 3-[4-(4-Cyano-phenyl)-1,2,3-triazol-1-ylmethyl]-N-[6-(4-fluoro-piperidin-1-yl)-4,5,6,7-tetrahydro-benzothiazol-2-yl]-benzamide] | 
6 | 0.53 | 2.4 | N#Cc1ccc(-c2cn(Cc3cccc(C(=O)Nc4nc5c(s4)C[C@@H](N4CCCCC4)CC5)c3)nn2)cc1 [Compound 44, 3-[4-(4-Cyano-phenyl)-1,2,3-triazol-1-ylmethyl]-N—((S)-6-piperidin-1-yl-4,5,6,7-tetrahydro-benzothiazol-2-yl)-benzamide] | 
7 | 0.35 | 2.1 | COCCN[C@H]1CCc2nc(NC(=O)c3cccc(Cn4cc(-c5ccc(C#N)cc5)cn4)c3)sc2C1 [Compound 45, 3-[4-(4-Cyano-phenyl)-pyrazol-1-ylmethyl]-N—[(S)-6-(2-methoxy-ethylamino)-4,5,6,7-tetrahydro-benzothiazol-2-yl]-benzamide] | 
8 | 0.73 | 1.7 | COCCN(C)[C@H]1CCc2nc(NC(=O)c3cccc(Cn4cc(-c5ccc(C#N)cc5)nn4)c3)sc2C1 [Compound 49, 3-[4-(4-Cyano-phenyl)-[1,2,3]triazol-1-ylmethyl]-N-{(S)-6-[(2-methoxy-ethyl)-methyl-amino]-4,5,6,7-tetrahydro-benzothiazol-2-yl}-benzamide] | 
9 | 6.5 | 2.3 | COCCN(CCOC)[C@H]1CCc2nc(NC(=O)c3cccc(Cn4cc(-c5ccc(C#N)cc5)nn4)c3)sc2C1 [Compound 55, N-{(S)-6-[Bis-(2-methoxy-ethyl)-amino]-4,5,6,7-tetrahydro-benzothiazol-2-yl}-3-[4-(4-cyano-phenyl)-[1,2,3]triazol-1-ylmethyl]-benzamide] | 
10 | 4 | 2.5 | N#Cc1ccc(-c2nnc(Cc3cccc(C(=O)Nc4nc5c(s4)C[C@@H](N4CCOCC4)CC5)c3)s2)cc1 [Compound 56, 3-[5-(4-Cyano-phenyl)-1,3,4-thiadiazol-2-ylmethyl]-N—((S)-6-morpholin-4-yl-4,5,6,7-tetrahydro-benzothiazol-2-yl)-benzamide] | 
11 |  |  | C[C@@H](N)[C@H]1CC[C@H](C(=O)Nc2ccncc2)CC1 [Compound Y-27632, Y-27632] | neointimal formation [3]: inhibited neointimal formation; effect on blood pressure in control rats ([4]; control rats): only a minor effect; blood pressure in three rat models of hypertension ([4]; spontaneously hypertensive, renal hypertensive, deoxycortisone acetate salt hypertensive rats): significantly decrease blood pressure; ventricular hypertrophy and function (Dahl salt-sensitive rats): improve ventricular hypertrophy and function
12 |  |  | O=S(=O)(c1cccc2cnccc12)N1CCCNCC1 [fasudil] | infarct size and neurologic deficit (rat stroke model): reduce both the infarct size and neurologic deficit; coronary constrictive remodeling [5]: promote a regression of coronary constrictive remodeling; coronary stenosis [5]: progressively reduce coronary stenosis
